How the values were obtained:
15-PGDH/HPGD = 15-PGDH/HPGD (Homo sapiens (Human), UniProt P15428); experiment: hPGDH inhibitor screening biochemical assay; settings: read-out: hPGDH: Average IC50
How it was run: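 Recombinant human 15-PGDH (10 nM) pre-incubated with compounds 10 min at 37 °C, then 15 μM PGE2 and 0.25 mM NAD+ added for 10 min at room temperature in 50 mM Tris-HCl pH 7.5, 0.01% Tween 20. NADH fluorescence read at ex/em 340/485 nm. IC50 from 10-point curves, four-parameter fit versus 1% DMSO.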

[1] = Liver microsome stability assay (RLM); type: in vitro ADME; settings: rat liver microsomes
Protocol: (§1) A microsomal mixture (microsomes and Kphos buffer) was prepared at a concentration of 1.428 mg/mL in 2 mL tubes. To this microsomal mixture 1.6 μL (1 mM) of test compound and positive control were spiked; from this mixture, 70 μL was transferred to 96 well plate and pre-incubated at 37° C. for 5 min. After pre-incubation, the zero minute time point reaction was stopped using 100 μL of ice-cold acetonitrile containing internal standard and […] (3.33 mM in Kphos buffer) was added. The 45 minute time point reaction was initiated by addition of 30 μL of NADPH (3.33 mM in Kphos buffer) and incubated at 37° C. for 15 and 45 min. Reactions without NADPH and buffer controls (minus NADPH) at 0, 15, and 45 minutes were also incubated to rule out non-NADPH metabolism or chemical instability in the incubation buffer. Incubation reactions were stopped with 100 μL of ice-cold acetonitrile containing internal standard. The plates were centrifuged at 4000 RPM for 15 min and 100 μL aliquots were submitted for analysis by LC-MS/MS. (Verapamil in human liver microsomes (HLM) and rat liver microsomes (RLM) was used as positive controls. Imipramine in mouse liver microsomes (MLM) was used as a positive control.) Samples were monitored for parent compound disappearance in MRM mode (multiple reaction monitoring) using LC-MS/MS. The peak area ratios of analyte versus internal standard were used to calculate the % remaining at the end of 45 minutes in the presence of NADPH.

[2] = Liver microsome stability assay (MLM); type: in vitro ADME; settings: mouse liver microsomes
Protocol: as §1

Sequence of 15-PGDH/HPGD (P15428 whole entry): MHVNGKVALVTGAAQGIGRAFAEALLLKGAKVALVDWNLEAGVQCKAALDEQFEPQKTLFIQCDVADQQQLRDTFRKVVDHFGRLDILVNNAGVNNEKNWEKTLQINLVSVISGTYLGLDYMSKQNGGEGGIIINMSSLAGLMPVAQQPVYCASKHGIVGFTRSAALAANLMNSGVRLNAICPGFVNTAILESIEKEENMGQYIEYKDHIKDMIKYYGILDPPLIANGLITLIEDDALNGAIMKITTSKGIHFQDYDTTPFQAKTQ

| IC50 (15-PGDH/HPGD) | RLM + NADPH (% remaining at 45 min) [1] | MLM + NADPH (% remaining at 45 min) [2] | SMILES |
| --- | --- | --- | --- |
| < 100 nM | 78% |  | COc1ccc(-n2c(C)nc3cc(C(=O)N4CCCCC4)cnc32)cc1 [MF-DH-205] |
| < 100 nM | 34% |  | COc1ccc(-n2nnc3cc(C(=O)N4CCCCC4)ccc32)cc1 [MF-DH-243, (1-(4-methoxyphenyl)-1H-benzo[d][1,2,3]triazol-5-yl)(piperidin-1-yl)methanone] |
| < 100 nM | 17% |  | COc1ccc(-n2c(C)nc3cc(C(=O)N4CCC(F)CC4)ccc32)cc1 [MF-DH-187] |
| < 100 nM | 44% |  | COc1ccc(-n2ccc3c(C)c(C(=O)N4CCCCC4)cnc32)cc1 [MF-DH-287] |
| < 100 nM | 16% |  | COc1ccc(-n2ncc3cc(C(=O)N4CCCCC4)ccc32)cc1 [MF-DH-245] |
| 100 to 1000 nM | 69% |  | O=C(c1cnc2c(c1)ncn2-c1cccc(OC(F)F)c1)N1CCC(F)CC1 [MF-DH-228] |
| 100 to 1000 nM | 39% |  | O=C(c1cnc2c(c1)ncn2-c1cccc(OC(F)F)c1)N1CCCCC1 [MF-DH-229] |
| < 100 nM | 0% |  | CCc1nc2cc(C(=O)N3CCC(F)CC3)ccc2n1-c1ccc(OC)cc1 [MF-DH-193] |
| < 100 nM | 29% |  | O=C(c1cnc2c(ccn2-c2ccc3c(c2)OC(F)(F)O3)c1)N1CCCCC1 [MF-DH-249] |
| 100 to 1000 nM | 34% |  | O=C(c1cnc2c(c1)ncn2-c1ccc(OC(F)(F)F)cc1)N1CCC(F)CC1 [MF-DH-218] |
| 100 to 1000 nM | 22% |  | COc1ccc(-n2nc(Cl)c3cc(C(=O)N4CCCCC4)ccc32)cc1 [MF-DH-247] |
| < 100 nM | 34% |  | O=C(c1cnc2c(c1)ncn2-c1ccc(F)c(F)c1)N1CCCCC1 [MF-DH-217] |
| < 100 nM | 74% |  | O=C(c1cnc2c(c1)ncn2-c1ccc(OC(F)F)cc1)N1CCCCC1 [MF-DH-223] |
| 100 to 1000 nM | 60% |  | O=C(c1cnc2c(c1)ncn2-c1ccc(F)cc1)N1CCC(F)CC1 [MF-DH-214] |
| < 100 nM | 23% |  | COc1ccc(-n2ccc3cc(C(=O)N4CCC(F)CC4)ccc32)cc1 [MF-DH-189] |
| < 100 nM |  | 38% | CC(C)(C)c1ccc(NC(=O)c2cncc(-n3ccc4cc(C(=O)N5CCC(F)(F)CC5)cnc43)c2)cn1 [MF-DH-520, N-(6-(tert-butyl)pyridin-3-yl)-5-(5-(4,4-difluoropiperidine-1-carbonyl)-1H-pyrrolo[2,3-b]pyridin-1-yl)nicotinamide] |
| < 100 nM |  | 31% | O=C(Nc1ccno1)c1cncc(-n2ccc3cc(C(=O)N4CCC(F)(F)CC4)cnc32)c1 [MF-DH-459, 5-(5-(4,4-difluoropiperidine-1-carbonyl)-1H-pyrrolo[2,3-b]pyridin-1-yl)-N-(isoxazol-5-yl)nicotinamide] |
| < 100 nM |  | 81% | O=C(NC1CCS(=O)(=O)CC1)c1cc(Cl)cc(-n2ccc3cc(C(=O)N4CCC(F)(F)CC4)cnc32)c1 |
| < 100 nM |  | 89% | O=C(c1cnc2c(ccn2-c2ccc(-c3nnc(C(F)(F)F)[nH]3)nc2)c1)N1CCC(F)(F)CC1 [MF-DH-519, (4,4-difluoropiperidin-1-yl)(1-(6-(5-(trifluoromethyl)-4H-1,2,4-triazol-3-yl)pyridin-3-yl)-1H-pyrrolo[2,3-b]pyridin-5-yl)methanone] |

| IC50 (15-PGDH/HPGD) | RLM + NADPH (% remaining at 45 min) [1] | MLM + NADPH (% remaining at 45 min) [2] | SMILES |
| --- | --- | --- | --- |
| < 100 nM |  | 45% | CC(C)(C)C(=O)NCCNC(=O)c1ccc(-n2ccc3cc(C(=O)N4CCC(F)(F)CC4)cnc32)cc1 [MF-DH-403, 4-(5-(4,4-difluoropiperidine-1-carbonyl)-1H-pyrrolo[2,3-b]pyridin-1-yl)-N-(2-pivalamidoethyl)benzamide] |
| < 100 nM |  | 0% | N/C(=N\O)c1cccc(-n2ccc3cc(C(=O)N4CCCCC4)cnc32)c1 [MF-DH-400] |
| < 100 nM |  | 100% | NC(=O)c1ccc(-n2cnc3cc(C(=O)N4CCC(F)(F)CC4)cnc32)cc1 [MF-DH-464] |
| < 100 nM |  | 87% | CC1(C)NC(=O)N(c2ccc(-n3ccc4cc(C(=O)N5CCC(F)(F)CC5)cnc43)cn2)C1=O [MF-DH-457] |
| < 100 nM |  | 66% | CC(C)(C)NC(=O)c1ccc(-n2ccc3cc(C(=O)N4CCC(F)(F)CC4)cnc32)cn1 [MF-DH-406, N-(tert-butyl)-5-(5-(4,4-difluoropiperidine-1-carbonyl)-1H-pyrrolo[2,3-b]pyridin-1-yl)picolinamide] |
| < 100 nM |  | 86% | CC(C)(C)CNC(=O)c1cncc(-n2ccc3cc(C(=O)N4CCC(F)(F)CC4)cnc32)c1 [MF-DH-405, 5-(5-(4,4-difluoropiperidine-1-carbonyl)-1H-pyrrolo[2,3-b]pyridin-1-yl)-N-neopentylnicotinamide] |
| < 100 nM |  | 84% | CC(C)(O)CNC(=O)c1cc(Cl)cc(-n2ccc3cc(C(=O)N4CCC(F)(F)CC4)cnc32)c1 [MF-DH-521] |
| < 100 nM |  | 74% | Cc1nc(-c2cncc(-n3ccc4cc(C(=O)N5CCC(F)(F)CC5)cnc43)c2)no1 [MF-DH-470, (4,4-difluoropiperidin-1-yl)(1-(5-(5-methyl-1,2,4-oxadiazol-3-yl)pyridin-3-yl)-1H-pyrrolo[2,3-b]pyridin-5-yl)methanone] |
| < 100 nM |  | 60% | O=C(Nc1ccn(C2CC2)n1)c1cncc(-n2ccc3cc(C(=O)N4CCC(F)(F)CC4)cnc32)c1 [MF-DH-500, N-(1-cyclopropyl-1H-pyrazol-3-yl)-5-(5-(4,4-difluoropiperidine-1-carbonyl)-1H-pyrrolo[2,3-b]pyridin-1-yl)nicotinamide] |
| < 100 nM |  | 15% | O=C(Nc1ccn(C2CC2)n1)c1cccc(-n2ccc3cc(C(=O)N4CCC(F)(F)CC4)cnc32)c1 [MF-DH-499, N-(1-cyclopropyl-1H-pyrazol-3-yl)-3-(5-(4,4-difluoropiperidine-1-carbonyl)-1H-pyrrolo[2,3-b]pyridin-1-yl)benzamide] |
| < 100 nM |  | 47% | O=C(c1cnc2c(ccn2-c2cncc(-c3n[nH]c(C4CC4)n3)c2)c1)N1CCC(F)(F)CC1 [MF-DH-517, (1-(5-(5-cyclopropyl-1H-1,2,4-triazol-3-yl)pyridin-3-yl)-1H-pyrrolo[2,3-b]pyridin-5-yl)(4,4-difluoropiperidin-1-yl)methanone] |
| < 100 nM |  | 91% | CC(C)(O)CCc1cc2cc(C(=O)N3CCC(F)(F)CC3)cnc2n1-c1ccc(C(=O)O)cc1 [MF-DH-538, 4-(5-(4,4-difluoropiperidine-1-carbonyl)-2-(3-hydroxy-3-methylbutyl)-1H-pyrrolo[2,3-b]pyridin-1-yl)benzoic acid] |
| < 100 nM |  | 92% | O=C(c1cnc2c(ccn2-c2ccc(-c3n[nH]c(C4CC4)n3)nc2)c1)N1CCC(F)(F)CC1 [MF-DH-518, (1-(6-(5-cyclopropyl-1H-1,2,4-triazol-3-yl)pyridin-3-yl)-1H-pyrrolo[2,3-b]pyridin-5-yl)(4,4-difluoropiperidin-1-yl)methanone] |
| < 100 nM |  | 90% | O=C(c1cnc2c(ccn2-c2ccc(-c3nnn[nH]3)nc2)c1)N1CCC(F)(F)CC1 [MF-DH-452, (1-(6-(1H-tetrazol-5-yl)pyridin-3-yl)-1H-pyrrolo[2,3-b]pyridin-5-yl)(4,4-difluoropiperidin-1-yl)methanone] |
| < 100 nM |  | 83% | O=C(c1cnc2c(ccn2-c2cncc(N3CCOC3=O)c2)c1)N1CCC(F)(F)CC1 [MF-DH-472] |
| < 100 nM |  | 72% | Cc1c(C(=O)N2CCC(F)CC2)cnc2c1ccn2-c1ccc(C#N)cc1 [MF-DH-387, 4-(5-(4-fluoropiperidine-1-carbonyl)-4-methyl-1H-pyrrolo[2,3-b]pyridin-1-yl)benzonitrile] |
| < 100 nM |  | 12% | NC(=O)c1ccc(-n2cc(Cl)c3cc(C(=O)N4CCCCC4)cnc32)cc1 [MF-DH-383, 4-(3-chloro-5-(piperidine-1-carbonyl)-1H-pyrrolo[2,3-b]pyridin-1-yl)benzamide] |
| < 100 nM |  | 68% | Cc1nc(-c2ccc(-n3c(CCC(C)(C)O)cc4cc(C(=O)N5CCC(F)(F)CC5)cnc43)cc2)no1 [MF-DH-542, (4,4-difluoropiperidin-1-yl)(2-(3-hydroxy-3-methylbutyl)-1-(4-(5-methyl-1,2,4-oxadiazol-3-yl)phenyl)-1H-pyrrolo[2,3-b]pyridin-5-yl)methanone] |

From patent US11345702B1 (Myoforte Therapeutics, Inc., priority 2020, dated 2022)
